Test results: patent US20230293469A1, “NOVEL PHARMACEUTICAL COMPOSITIONS” (NEUROPRO THERAPEUTICS, INC., priority 2020, published 2023)
Several values for one entry are separate records, joined by “and”; a condition that tells them apart may be missing. Equal entries are not always repeated. Where two headings read alike, the source gives them in different places.

Tests used:
Format in all cases: in vivo
[1] = Oral dose PK of NPT2042 in dog (AUC for absolute bioavailability)
Description: (§1) Assays were performed to determine absolute bioavailability of NPT2042 in two species: dog and rat. The calculation of absolute bioavailability depends on four inputs: the areas under the curves (AUC) for oral and IV, and the oral and IV doses.
Testing was conducted to determine AUCs for an oral dose in dog.
Two dogs were each dosed 30 mg/kg NPT2042 orally, on two different days.

[2] = IV bolus PK of NPT-2042 in dog
Description: as §1
Testing was conducted to determine AUC for an IV dose in dog.
The same two dogs were each dosed 2042 IV at 10 mg/kg.
Table 8 provides Noncompartmental Parameters for NPT-2042 for 10 mg/kg Bolus Dosing of NPT-2042 in Dogs (n=2).

[3] = Oral dose PK of NPT-2042 in rat
Description: as §1
Testing was conducted to determine AUCs for an oral dose in rat.

[4] = NPT2042, dog, oral 30 mg/kg, animals D0001, D0601, Mean, 30 mg/kg
[5] = NPT2042, dog, oral 30 mg/kg, animals D0001, D0601, Mean, 30 mg/kg, mean
[6] = dog, in vivo, po, 30 mg/kg, NPT2042, dog, oral 30 mg/kg, animals D0001, D0601, Mean
[7] = NPT-2042, dog, IV bolus 10 mg/kg, animals 1201A, 1501A, Mean, 10 mg/kg
[8] = plasma, NPT-2042, rat, oral 30 mg/kg

Compound: CCCCNc1cc(C(=O)N(Cc2ccccc2)Cc2ccccc2)cc(S(N)(=O)=O)c1Oc1ccccc1 [NPT-2042, N,N-Dibenzyl 3-Aminosulfonyl-5-butylamino-4-phenoxybenzamide]
- AUCinf [1, 4]: 1520 ng·h/mL
- AUClast [1, 4]: 1450 ng·h/mL
- CL/F [1, 4]: 328 mL/min/kg
- Cmax [1, 4]: 153 ng/mL
- t½ [1, 4]: 4.72 h
- AUCinf [1, 5]: 1440 ng·h/mL
- AUClast [1, 5]: 1390 ng·h/mL
- CL/F [1, 5]: 347 mL/min/kg
- Cmax [1, 5]: 152 ng/mL
- t½ [1, 5]: 4.16 h
- AUC(0-inf) [1, 6]: 1360 ng·h/mL
- AUC(0-t) [1, 6]: 1340 ng·h/mL
- CL/F ([1]; dog, in vivo, po, 30 mg/kg, NPT2042, dog, oral 30 mg/kg, animals D0001, D0601, Mean, read-out: CL/F (converted)): 367 mL/min/kg
- Cmax ([1]; dog, in vivo, po, 30 mg/kg, NPT2042, dog, oral 30 mg/kg, animals D0001, D0601, Mean, read-out: Cmax): 151 ng/mL
- Vd/F ([1]; dog, in vivo, po, 30 mg/kg, NPT2042, dog, oral 30 mg/kg, animals D0001, D0601, Mean, read-out: Vz/F): 115 L/kg
- half-life ([1]; dog, in vivo, po, 30 mg/kg, NPT2042, dog, oral 30 mg/kg, animals D0001, D0601, Mean, read-out: t½ (converted)): 3.61 h
- Absolute bioavailability (AUCpo/AUCiv)*(Doseiv/Dosepo) ([1]; dog, oral 30 mg/kg vs IV 10 mg/kg, as fraction): 0.0509
- Tmax ([1]; in vivo, NPT2042, dog, oral 30 mg/kg, animals D0001, D0601, Mean): 6 h
- bioavailability ([1]; in vivo, dog, oral 30 mg/kg vs IV 10 mg/kg): 5.1%
- C0 (back-extrapolated concentration) [2, 7]: 5680 ng/mL and 6440 ng/mL
- CL (total body clearance) [2, 7]: 19.5 mL/min/kg and 16.2 mL/min/kg
- Tmax [2, 7]: 4.98 min
- Vz (volume of distribution) [2, 7]: 6.44 L/kg and 6.54 L/kg
- t½ (terminal-phase half-life) [2, 7]: 3.82 h and 4.67 h
- Plasma NPT-2042 concentrations (in words) ([2]; dog, IV bolus 10 mg/kg): high and still quantifiable at 24 hours after dosing
- Diuresis ([2]; dog, IV bolus 10 mg/kg NPT-2042): lack of diuresis
- Decay profile after bolus dosing ([2]; dog, IV bolus 10 mg/kg, log-linear plots): multi-exponential decay
- AUC(0-inf) ([2]; dog, plasma, iv, 10 mg/kg, NPT-2042, dog, IV bolus 10 mg/kg, animals 1201A, 1501A, Mean): 8560 ng·h/mL
- C0 ([2]; dog, plasma, iv, 10 mg/kg, NPT-2042, dog, IV bolus 10 mg/kg, animals 1201A, 1501A, Mean, read-out: C0 (back-extrapolated concentration)): 6060 ng/mL
- clearance ([2]; dog, plasma, iv, 10 mg/kg, NPT-2042, dog, IV bolus 10 mg/kg, animals 1201A, 1501A, Mean, read-out: CL (total body clearance) (converted)): 17.8 mL/min/kg
- Cmax ([2]; dog, plasma, iv, 10 mg/kg, NPT-2042, dog, IV bolus 10 mg/kg, animals 1201A, 1501A, Mean, read-out: Cmax): 5210 ng/mL
- Tmax ([2]; dog, plasma, iv, 10 mg/kg, NPT-2042, dog, IV bolus 10 mg/kg, animals 1201A, 1501A, Mean, read-out: Tmax): 4.8 min
- Vd ([2]; dog, plasma, iv, 10 mg/kg, NPT-2042, dog, IV bolus 10 mg/kg, animals 1201A, 1501A, Mean, read-out: Vz (volume of distribution)): 6.49 L/kg
- half-life ([2]; dog, plasma, iv, 10 mg/kg, NPT-2042, dog, IV bolus 10 mg/kg, animals 1201A, 1501A, Mean, read-out: t½ (terminal-phase half-life) (converted)): 4.25 h
- concentration at 0.08 h ([2]; dog, plasma, iv, 10 mg/kg, dog, IV bolus 10 mg/kg, animals 1201A, 1501A, Mean, read-out: Plasma NPT-2042 concentration, Time 0.08 h): 5560 ng/mL
- concentration at 1 h ([2]; dog, plasma, iv, 10 mg/kg, dog, IV bolus 10 mg/kg, animals 1201A, 1501A, Mean, read-out: Plasma NPT-2042 concentration, Time 1.00 h): 2240 ng/mL
- concentration at 2 h ([2]; dog, plasma, iv, 10 mg/kg, dog, IV bolus 10 mg/kg, animals 1201A, 1501A, Mean, read-out: Plasma NPT-2042 concentration, Time 2.00 h): 1230 ng/mL
- concentration at 4 h ([2]; dog, plasma, iv, 10 mg/kg, dog, IV bolus 10 mg/kg, animals 1201A, 1501A, Mean, read-out: Plasma NPT-2042 concentration, Time 4.00 h): 688 ng/mL
- concentration at 6 h ([2]; dog, plasma, iv, 10 mg/kg, dog, IV bolus 10 mg/kg, animals 1201A, 1501A, Mean, read-out: Plasma NPT-2042 concentration, Time 6.00 h): 326 ng/mL
- concentration at 8 h ([2]; dog, plasma, iv, 10 mg/kg, dog, IV bolus 10 mg/kg, animals 1201A, 1501A, Mean, read-out: Plasma NPT-2042 concentration, Time 8.00 h): 182 ng/mL
- CL as fraction of hepatic blood flow ([2]; dog, hepatic blood flow about 1.5 L/h/kg): about ⅔
- half-life ([3]; in vivo, NPT-2042, rat, oral 30 mg/kg, read-out: t½ (converted)): 2.61 h
- bioavailability ([3]; in vivo, rat, oral 30 mg/kg vs IV 10 mg/kg, read-out: Fabs (%), absolute bioavailability): 0.34%
- AUC(0-inf) [3, 8]: 35.4 ng·h/mL
- Cmax [3, 8]: 4.56 ng/mL
- Tmax [3, 8]: 4 h
- concentration at 0.5 h ([3]; rat, in vivo, oral, 30 mg/kg, rat, oral, dose column 30 mg/kg, individual rats and Mean (N=3), read-out: NPT-2042 concentration, Time 0.50 h): 2.01 ng/mL
- concentration at 2 h ([3]; rat, in vivo, oral, 30 mg/kg, rat, oral, dose column 30 mg/kg, individual rats and Mean (N=3), read-out: NPT-2042 concentration, Time 2.00 h): 4 ng/mL
